In US9365522B2, “Pyrazole amide derivative” (AMGEN INC., priority 2015, dated 2016):

Biological target: T1, human RORγ-LBD (Homo sapiens, UniProt P51449)
T1 construct: made in house; host or cells: E. coli (BL-21)
T1 sequence (P51449 262-518): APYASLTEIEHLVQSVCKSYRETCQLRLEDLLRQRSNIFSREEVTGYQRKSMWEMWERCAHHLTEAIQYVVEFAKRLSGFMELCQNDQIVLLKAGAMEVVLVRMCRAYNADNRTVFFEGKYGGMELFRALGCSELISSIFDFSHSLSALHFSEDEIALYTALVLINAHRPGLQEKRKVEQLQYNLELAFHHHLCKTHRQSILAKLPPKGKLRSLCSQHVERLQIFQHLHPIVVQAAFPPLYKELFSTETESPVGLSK
Test: ROR gamma coactivator peptide recruitment Alphascreen assay (RORγ-LBD binding to GRIP1 coactivator peptide)
Format: biochemical
Settings: 5 nM human RORγ-LBD, 30 nM 7-β-hydroxycholesterol, 50 nM biotinylated GRIP1 coactivator peptide, overnight incubation at room temperature; read-out: result (pIC50, RORγ coactivator peptide recruitment Alphascreen assay) (converted)
How it was run: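 His/Flag-tagged human RORγ-LBD (aa 262-518, E. coli-expressed, 5 nM) with agonist 7-β-hydroxycholesterol (30 nM) and biotinylated GRIP1 LXXLL peptide (50 nM) in HEPES pH 7.4 buffer, 2.5% DMSO. Compound 1-in-2 dilutions; Alphascreen bead signal read after overnight incubation at room temperature; pIC50 calculated.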

Row | Structure (SMILES) | IC50 [nM]
1 | COc1cccc(F)c1C(=O)CN(C(=O)c1cnn([C@H]2CC[C@](C)(C(=O)O)CC2)c1C(F)(F)F)C1CCC(C)(C)CC1 [Example 607, trans-4-(4-((4,4-dimethylcyclohexyl)(2-(2-fluoro-6-methoxyphenyl)-2-oxoethyl)carbamoyl)-5-(trifluoromethyl)-1H-pyrazol-1-yl)-1-methylcyclohexanecarboxylic acid] | 105
2 | CC1(C)CC[C@H]1N(CC(=O)c1c(Cl)cccc1Cl)C(=O)c1cnn([C@H]2CC[C@@H](C(=O)O)CC2)c1C(F)(F)F [Example 636, cis-4-(4-((2-(2,6-dichlorophenyl)-2-oxoethyl)((1R)-2,2-dimethylcyclobutyl)carbamoyl)-5-(trifluoromethyl)-1H-pyrazol-1-yl)cyclohexanecarboxylic acid] | 132
3 | Cc1cc(Cl)c(C(=O)CN(CC2CC(C)(C)C2)C(=O)c2cnn([C@H]3CC[C@H](C(=O)O)CC3)c2C(F)(F)F)c(Cl)c1 [Example 520, trans-4-(4-((2-(2,6-dichloro-4-methylphenyl)-2-oxoethyl)((3,3-dimethylcyclobutyl)methyl)carbamoyl)-5-(trifluoromethyl)-1H-pyrazol-1-yl)cyclohexanecarboxylic acid] | 2.51
4 | Cc1cc(Cl)c(C(=O)CN(CC2(C)CCCCC2)C(=O)c2cnn([C@H]3CC[C@H](C(=O)O)CC3)c2C(F)(F)F)c(Cl)c1 [Example 519, trans-4-(4-((2-(2,6-dichloro-4-methylphenyl)-2-oxoethyl)((1-methylcyclohexyl)methyl)carbamoyl)-5-(trifluoromethyl)-1H-pyrazol-1-yl)cyclohexanecarboxylic acid] | 5.13
5 | COc1cc(Cl)c(C(=O)CN(C(=O)c2cnn([C@H]3CC[C@H](C(=O)O)CC3)c2C(F)(F)F)C2CCC(C)(C)CC2)c(Cl)c1 [Example 575, trans-4-(4-((2-(2,6-dichloro-4-methoxyphenyl)-2-oxoethyl)(4,4-dimethylcyclohexyl)carbamoyl)-5-(trifluoromethyl)-1H-pyrazol-1-yl)cyclohexanecarboxylic acid] | 17
6 | O=C(c1cnn([C@H]2CC[C@H](C(=O)O)CC2)c1C(F)(F)F)N(CCc1c(Cl)cccc1Cl)Cc1ccc(Cl)cc1 [Example 501, trans-4-(4-((4-chlorobenzyl)(2-(2,6-dichlorophenyl)ethyl)carbamoyl)-5-(trifluoromethyl)-1H-pyrazol-1-yl)cyclohexanecarboxylic acid] | 3.8
7 | C[C@@H]1C[C@@H](n2ncc(C(=O)N(CC(=O)c3c(Cl)cccc3Cl)[C@@H]3CCC34CCC4)c2C(F)(F)F)CC[C@@H]1C(=O)O [Example 849, (1S,2R,4S)-4-(4-((2-(2,6-dichlorophenyl)-2-oxoethyl)((1R)-spiro[3.3]hept-1-yl)carbamoyl)-5-(trifluoromethyl)-1H-pyrazol-1-yl)-2-methylcyclohexanecarboxylic acid] | 8.71
8 | C[C@@H]1C[C@@H](n2ncc(C(=O)N(CCC(F)(F)F)CC(=O)c3c(Cl)cncc3Cl)c2C(F)(F)F)CC[C@@H]1C(=O)O [Example 766, (1S,2R,4S)-4-(4-((2-(3,5-dichloro-4-pyridinyl)-2-oxoethyl)(3,3,3-trifluoropropyl)carbamoyl)-5-(trifluoromethyl)-1H-pyrazol-1-yl)-2-methylcyclohexanecarboxylic acid] | 32.4
9 | C[C@@H]1C[C@](C)(C(=O)O)CC[C@@H]1n1ncc(C(=O)N(CC(=O)c2c(Cl)cncc2Cl)CC(C)(C)C)c1C(F)(F)F [Example 857, (1R,3R,4S)-4-(4-((2-(3,5-dichloro-4-pyridinyl)-2-oxoethyl)(2,2-dimethylpropyl)carbamoyl)-5-(trifluoromethyl)-1H-pyrazol-1-yl)-1,3-dimethylcyclohexanecarboxylic acid] | 33.9
10 | CC1(C)CC[C@@H]1N(CC(=O)c1c(Cl)cncc1Cl)C(=O)c1cnn([C@H]2CC[C@@H](C(=O)O)CC2)c1C(F)(F)F [Example 635, cis-4-(4-((2-(3,5-dichloro-4-pyridinyl)-2-oxoethyl)((1S)-2,2-dimethylcyclobutyl)carbamoyl)-5-(trifluoromethyl)-1H-pyrazol-1-yl)cyclohexanecarboxylic acid] | 324
11 | CC1(C)[C@@H]2C[C@H](N(CC(=O)c3c(F)cccc3Cl)C(=O)c3cnn([C@H]4CC[C@](C)(C(=O)O)CC4)c3C(F)(F)F)C[C@@H]21 [Example 658, trans-4-(4-((2-(2-chloro-6-fluorophenyl)-2-oxoethyl)((1R,3r,5S)-6,6-dimethylbicyclo[3.1.0]hex-3-yl)carbamoyl)-5-(trifluoromethyl)-1H-pyrazol-1-yl)-1-methylcyclohexanecarboxylic acid] | 1.95

Continued, values first:

Row | IC50 [nM] | Structure (SMILES)
12 | 295 | CC1(CN(CCc2c(Cl)cncc2Cl)C(=O)c2cnn([C@H]3CC[C@@H](C(=O)O)CC3)c2C(F)(F)F)CCC1 [Example 560, cis-4-(4-((2-(3,5-dichloro-4-pyridinyl)ethyl)((1-methylcyclobutyl)methyl)carbamoyl)-5-(trifluoromethyl)-1H-pyrazol-1-yl)cyclohexanecarboxylic acid]
13 | 1.48 | Cc1cc(Cl)c(C(=O)CN(CC2CCCCC2)C(=O)c2cnn([C@H]3CC[C@](C)(C(=O)O)CC3)c2C(F)(F)F)c(Cl)c1 [Example 533, trans-4-(4-((cyclohexylmethyl)(2-(2,6-dichloro-4-methylphenyl)-2-oxoethyl)carbamoyl)-5-(trifluoromethyl)-1H-pyrazol-1-yl)-1-methylcyclohexanecarboxylic acid]
14 | 355 | C[C@]1(C(=O)O)CC[C@H](n2ncc(C(=O)N(CC(=O)c3c(Cl)cccc3Cl)[C@@H]3CCOC4(CCC4)C3)c2C(F)(F)F)CC1 [Example 654, trans-4-(4-((2-(2,6-dichlorophenyl)-2-oxoethyl)((8R)-5-oxaspiro[3.5]non-8-yl)carbamoyl)-5-(trifluoromethyl)-1H-pyrazol-1-yl)-1-methylcyclohexanecarboxylic acid]
15 | 2.09 | C[C@]1(C(=O)O)CC[C@H](n2ncc(C(=O)N(CC(=O)c3c(Cl)cc(F)cc3Cl)CC3CCCC3)c2C(F)(F)F)CC1 [Example 698, trans-4-(4-((cyclopentylmethyl)(2-(2,6-dichloro-4-fluorophenyl)-2-oxoethyl)carbamoyl)-5-(trifluoromethyl)-1H-pyrazol-1-yl)-1-methylcyclohexanecarboxylic acid]
16 | 50.1 | C[C@@]1(CN(CCc2c(Cl)cncc2Cl)C(=O)c2cnn([C@H]3CC[C@](C)(C(=O)O)CC3)c2C(F)(F)F)CCCO1 [Example 682, trans-4-(4-((2-(3,5-dichloro-4-pyridinyl)ethyl)(((2S)-2-methyltetrahydro-2-furanyl)methyl)carbamoyl)-5-(trifluoromethyl)-1H-pyrazol-1-yl)-1-methylcyclohexanecarboxylic acid]
17 | 10 | C[C@]1(C(=O)O)CC[C@H](n2ncc(C(=O)N(CC(=O)c3c(Cl)cncc3Cl)CC3CCC3)c2C(F)(F)F)CC1 [Example 734, trans-4-(4-((cyclobutylmethyl)(2-(3,5-dichloro-4-pyridinyl)-2-oxoethyl)carbamoyl)-5-(trifluoromethyl)-1H-pyrazol-1-yl)-1-methylcyclohexanecarboxylic acid]
18 | 18200 | C[C@]1(C(=O)O)CC[C@H](n2ncc(C(=O)N3C[C@@H](Oc4ccccc4)C[C@@H]3C(=O)c3c(Cl)cncc3Cl)c2C(F)(F)F)CC1 (single isomer, unassigned) [Example 796]
19 | 9120 | C[C@]1(C(=O)O)CC[C@H](n2ncc(C(=O)N3C[C@H](C4CCCCC4)C[C@H]3C(=O)c3c(Cl)cncc3Cl)c2C(F)(F)F)CC1 (single isomer, unassigned) [Example 823]
20 | 22.9 | C[C@]1(C(=O)O)CC[C@H](n2ncc(C(=O)N3CC4(CCCC4)C[C@@H]3Cc3c(Cl)cncc3Cl)c2C(F)(F)F)CC1 [Example 582, trans-4-(4-(((3R)-3-((3,5-dichloro-4-pyridinyl)methyl)-2-azaspiro[4.4]non-2-yl)carbonyl)-5-(trifluoromethyl)-1H-pyrazol-1-yl)-1-methylcyclohexanecarboxylic acid]
21 | 2.82 | CC1(CN(CCc2c(Cl)cncc2Cl)C(=O)c2cnn([C@H]3CC[C@H](C(=O)O)CC3)c2C(F)(F)F)CCCC1 [Example 557, trans-4-(4-((2-(3,5-dichloro-4-pyridinyl)ethyl)((1-methylcyclopentyl)methyl)carbamoyl)-5-(trifluoromethyl)-1H-pyrazol-1-yl)cyclohexanecarboxylic acid]
22 | 1.74 | Cc1cc(Cl)c(C(=O)CN(CC2CCCC2)C(=O)c2cnn([C@H]3CC[C@@](C)(C(=O)O)CC3)c2C(F)(F)F)c(Cl)c1 [Example 718, trans-4-(4-((cyclopentylmethyl)(2-(2,6-dichloro-4-methylphenyl)-2-oxoethyl)carbamoyl)-5-(trifluoromethyl)-1H-pyrazol-1-yl)-1-methylcyclohexanecarboxylic acid]
23 | 8.51 | Cc1cc(Cl)c(C(=O)CN(CC2CCCCC2)C(=O)c2cnn([C@H]3CC[C@](C)(C(=O)O)CC3)c2C(F)(F)F)c(Cl)n1 [Example 801, trans-4-(4-((cyclohexylmethyl)(2-(2,4-dichloro-6-methyl-3-pyridinyl)-2-oxoethyl)carbamoyl)-5-(trifluoromethyl)-1H-pyrazol-1-yl)-1-methylcyclohexanecarboxylic acid]
